# Measured values: ChEMBL document CHEMBL4184146, “Interrogating the Roles of Post-Translational Modifications of Non-Histone Proteins” (J Med Chem, 2018)
# Columns and labels:
# Protein O-GlcNAcase = target: T1, Protein O-GlcNAcase (Rattus norvegicus, UniProt Q8VIJ5); assay: Inhibition of O-GlcNAcase in rat PC12 cells assessed as induction of OGlcNAcylation after 24 hrs by Western blot method; format: cell-based
# T1 sequence (Q8VIJ5 whole entry): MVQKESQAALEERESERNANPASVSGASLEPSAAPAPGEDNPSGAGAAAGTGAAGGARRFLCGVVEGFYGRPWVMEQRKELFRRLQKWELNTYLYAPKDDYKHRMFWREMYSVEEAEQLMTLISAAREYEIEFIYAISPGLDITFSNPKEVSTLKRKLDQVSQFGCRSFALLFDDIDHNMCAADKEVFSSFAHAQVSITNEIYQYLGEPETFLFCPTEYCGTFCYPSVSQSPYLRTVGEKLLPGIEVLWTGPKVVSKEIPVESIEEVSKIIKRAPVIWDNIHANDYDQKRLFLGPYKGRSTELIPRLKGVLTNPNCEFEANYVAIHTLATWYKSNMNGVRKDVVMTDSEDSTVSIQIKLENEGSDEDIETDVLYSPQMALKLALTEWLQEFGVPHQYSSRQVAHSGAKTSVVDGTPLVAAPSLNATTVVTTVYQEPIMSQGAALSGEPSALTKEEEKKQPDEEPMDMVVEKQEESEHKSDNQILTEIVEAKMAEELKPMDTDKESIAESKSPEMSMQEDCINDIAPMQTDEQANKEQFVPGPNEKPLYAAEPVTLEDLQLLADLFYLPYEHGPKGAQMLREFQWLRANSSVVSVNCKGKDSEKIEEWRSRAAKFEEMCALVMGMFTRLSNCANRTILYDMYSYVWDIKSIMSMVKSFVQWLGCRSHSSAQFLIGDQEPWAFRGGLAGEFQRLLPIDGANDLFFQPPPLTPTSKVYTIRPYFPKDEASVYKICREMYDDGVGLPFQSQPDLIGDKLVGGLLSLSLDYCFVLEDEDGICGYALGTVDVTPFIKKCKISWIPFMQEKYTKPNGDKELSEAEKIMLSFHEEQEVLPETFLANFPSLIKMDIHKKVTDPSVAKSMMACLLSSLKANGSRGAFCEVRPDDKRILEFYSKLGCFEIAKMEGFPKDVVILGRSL
# [1] = target: Protein farnesyltransferase (Homo sapiens, UniProt P49354+P49356); assay: Inhibition of FTase isolated from human Burkitt's lymphoma cells assessed as decrease in transfer of [3H]farnesyl from [3H]farnesyl PPi to H-Ras-CVLS
# [2] = Inhibition of SCF (SKP2) complex (unknown origin) expressed in baculovirus infected Sf9 cells assessed as decrease in phospho-p27 Kip1 ubiquitination preincubated for 10 to 45 mins followed by phospho-p27 Kip1 addition measured after 1 to 3 hrs by immunoblot method; design: species or system Homo sapiens
# [3] = target: Histone acetyltransferase p300 (Homo sapiens, UniProt Q09472); assay: Inhibition of full length His6-tagged recombinant p300 (unknown origin) expressed in baculovirus infected Sf21 cells using human histone as substrate preincubated for 10 mins followed by [3H]acetyl-CoA addition measured after 10 mins by liquid scintillation counting method
# [4] = target: c-Jun N-terminal kinase, JNK (Homo sapiens, UniProt P45983+P53779+P45984); assay: Inhibition of JNK (unknown origin); format: protein assay
# Sharpin/RBCK1/RNF31 = target: T2, Sharpin/RBCK1/RNF31 (Homo sapiens, UniProt Q96EP0+Q9BYM8+Q9H0F6); assay: Inhibition of petit-LUBAC (unknown origin)-mediated ubiquitylation expressed in Escherichia coli BL21 after 2 hrs in presence of E1, UbcH5c, E3 and ubiquitin
# T2 sequence (Q9H0F6 whole entry): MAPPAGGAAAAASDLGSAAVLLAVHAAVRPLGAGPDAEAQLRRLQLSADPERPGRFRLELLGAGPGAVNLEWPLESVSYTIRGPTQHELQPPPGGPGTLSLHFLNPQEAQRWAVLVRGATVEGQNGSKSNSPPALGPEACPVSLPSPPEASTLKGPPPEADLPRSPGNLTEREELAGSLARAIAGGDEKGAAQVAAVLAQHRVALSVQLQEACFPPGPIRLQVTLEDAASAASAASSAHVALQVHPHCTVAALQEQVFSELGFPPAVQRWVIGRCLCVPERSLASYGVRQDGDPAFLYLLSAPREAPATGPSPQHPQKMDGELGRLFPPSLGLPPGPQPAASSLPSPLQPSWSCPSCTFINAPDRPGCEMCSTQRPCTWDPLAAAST
# T2 sequence (Q9BYM8 whole entry): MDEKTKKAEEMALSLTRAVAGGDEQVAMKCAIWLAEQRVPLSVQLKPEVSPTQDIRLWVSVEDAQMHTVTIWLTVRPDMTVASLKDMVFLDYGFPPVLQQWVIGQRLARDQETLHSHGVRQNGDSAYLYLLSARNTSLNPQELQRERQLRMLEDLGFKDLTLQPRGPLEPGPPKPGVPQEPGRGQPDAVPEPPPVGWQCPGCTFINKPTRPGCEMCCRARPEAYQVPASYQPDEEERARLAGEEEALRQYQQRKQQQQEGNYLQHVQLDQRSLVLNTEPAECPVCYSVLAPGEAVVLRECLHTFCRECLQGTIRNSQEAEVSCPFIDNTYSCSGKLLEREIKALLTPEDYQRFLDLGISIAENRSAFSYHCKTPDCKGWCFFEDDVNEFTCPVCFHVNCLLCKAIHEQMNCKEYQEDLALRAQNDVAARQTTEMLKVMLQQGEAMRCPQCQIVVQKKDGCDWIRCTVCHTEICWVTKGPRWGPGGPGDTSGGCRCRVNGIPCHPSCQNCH
# T2 sequence (Q96EP0 whole entry): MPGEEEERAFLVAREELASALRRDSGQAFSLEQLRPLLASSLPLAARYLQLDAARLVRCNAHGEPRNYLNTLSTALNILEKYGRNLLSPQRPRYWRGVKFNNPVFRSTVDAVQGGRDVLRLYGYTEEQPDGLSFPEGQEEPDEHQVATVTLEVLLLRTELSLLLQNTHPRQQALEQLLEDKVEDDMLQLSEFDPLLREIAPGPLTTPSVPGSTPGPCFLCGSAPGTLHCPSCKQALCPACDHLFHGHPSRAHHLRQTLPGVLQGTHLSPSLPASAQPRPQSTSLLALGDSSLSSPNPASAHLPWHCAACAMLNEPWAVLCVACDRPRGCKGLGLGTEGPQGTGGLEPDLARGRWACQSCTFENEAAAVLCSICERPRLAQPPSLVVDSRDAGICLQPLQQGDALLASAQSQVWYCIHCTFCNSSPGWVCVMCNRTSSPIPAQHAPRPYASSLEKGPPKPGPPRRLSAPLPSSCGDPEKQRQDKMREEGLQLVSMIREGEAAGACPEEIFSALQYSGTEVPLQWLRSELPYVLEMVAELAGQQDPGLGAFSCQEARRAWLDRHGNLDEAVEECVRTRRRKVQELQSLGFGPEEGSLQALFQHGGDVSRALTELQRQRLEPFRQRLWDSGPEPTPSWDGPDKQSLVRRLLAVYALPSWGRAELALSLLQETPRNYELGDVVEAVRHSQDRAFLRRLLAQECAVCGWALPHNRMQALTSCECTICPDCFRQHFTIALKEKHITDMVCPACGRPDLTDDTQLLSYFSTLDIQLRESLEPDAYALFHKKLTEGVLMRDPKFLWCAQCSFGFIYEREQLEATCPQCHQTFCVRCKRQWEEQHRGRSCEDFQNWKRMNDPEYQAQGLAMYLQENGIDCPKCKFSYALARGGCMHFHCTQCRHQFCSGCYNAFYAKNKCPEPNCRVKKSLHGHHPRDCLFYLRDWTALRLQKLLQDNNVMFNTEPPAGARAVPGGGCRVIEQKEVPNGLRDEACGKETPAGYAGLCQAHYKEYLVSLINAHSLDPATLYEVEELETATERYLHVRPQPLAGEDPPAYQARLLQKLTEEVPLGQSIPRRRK
# [5] = target: Serine/threonine-protein kinase B-raf (Homo sapiens, UniProt P15056); assay: Inhibition of BRAF (unknown origin) using MEK1 K97R mutant as substrate preincubated for 60 to 120 mins followed by substrate addition measured after 2 hrs by TR-FRET assay
# [6] = Inhibition of UAE (unknown origin) assessed as decrease in formation of E2-UBL thioester reaction product; design: species or system Homo sapiens
# [7] = target: T3, Ubiquitin-like modifier-activating enzyme 6 (Homo sapiens, UniProt A0AVT1); assay: Inhibition of UBA6 (unknown origin) assessed as decrease in formation of E2-UBL thioester reaction product
# T3 sequence (A0AVT1 whole entry): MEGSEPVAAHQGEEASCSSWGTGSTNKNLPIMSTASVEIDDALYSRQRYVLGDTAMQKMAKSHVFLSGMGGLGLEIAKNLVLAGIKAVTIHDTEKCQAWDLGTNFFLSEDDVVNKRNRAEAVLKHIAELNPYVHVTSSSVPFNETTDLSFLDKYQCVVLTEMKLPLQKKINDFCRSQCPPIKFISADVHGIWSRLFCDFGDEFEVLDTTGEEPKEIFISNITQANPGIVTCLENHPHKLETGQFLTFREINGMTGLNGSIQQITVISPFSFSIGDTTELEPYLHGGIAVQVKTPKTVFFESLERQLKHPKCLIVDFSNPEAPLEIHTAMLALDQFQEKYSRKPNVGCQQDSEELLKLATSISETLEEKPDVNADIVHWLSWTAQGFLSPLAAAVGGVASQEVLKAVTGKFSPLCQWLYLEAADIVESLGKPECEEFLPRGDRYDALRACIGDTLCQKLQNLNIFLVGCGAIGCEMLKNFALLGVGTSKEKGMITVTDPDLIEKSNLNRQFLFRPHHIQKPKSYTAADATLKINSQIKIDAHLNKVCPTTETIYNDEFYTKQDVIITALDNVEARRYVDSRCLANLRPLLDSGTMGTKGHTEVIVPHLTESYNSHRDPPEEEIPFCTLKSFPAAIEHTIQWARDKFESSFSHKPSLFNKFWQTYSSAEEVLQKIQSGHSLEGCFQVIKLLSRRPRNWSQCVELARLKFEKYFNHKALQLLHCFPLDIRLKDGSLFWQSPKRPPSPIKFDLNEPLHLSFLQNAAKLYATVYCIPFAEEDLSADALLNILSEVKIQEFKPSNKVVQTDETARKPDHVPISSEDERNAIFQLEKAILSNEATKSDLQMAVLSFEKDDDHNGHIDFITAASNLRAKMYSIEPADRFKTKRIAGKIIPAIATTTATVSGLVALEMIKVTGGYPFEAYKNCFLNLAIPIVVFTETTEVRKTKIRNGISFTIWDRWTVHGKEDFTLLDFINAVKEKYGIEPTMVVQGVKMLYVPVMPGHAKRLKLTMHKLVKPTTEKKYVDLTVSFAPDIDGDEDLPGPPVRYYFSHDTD
# SUMO-activating enzyme = SUMO-activating enzyme (Homo sapiens, UniProt Q9UBT2); assay: Inhibition of SAE (unknown origin) assessed as decrease in formation of E2-UBL thioester reaction product; format: protein-complex assay
# [8] = target: T4, Ubiquitin-like modifier-activating enzyme ATG7 (Homo sapiens, UniProt O95352); assay: Inhibition of ATG7 (unknown origin) assessed as decrease in formation of E2-UBL thioester reaction product
# T4 sequence (O95352 whole entry): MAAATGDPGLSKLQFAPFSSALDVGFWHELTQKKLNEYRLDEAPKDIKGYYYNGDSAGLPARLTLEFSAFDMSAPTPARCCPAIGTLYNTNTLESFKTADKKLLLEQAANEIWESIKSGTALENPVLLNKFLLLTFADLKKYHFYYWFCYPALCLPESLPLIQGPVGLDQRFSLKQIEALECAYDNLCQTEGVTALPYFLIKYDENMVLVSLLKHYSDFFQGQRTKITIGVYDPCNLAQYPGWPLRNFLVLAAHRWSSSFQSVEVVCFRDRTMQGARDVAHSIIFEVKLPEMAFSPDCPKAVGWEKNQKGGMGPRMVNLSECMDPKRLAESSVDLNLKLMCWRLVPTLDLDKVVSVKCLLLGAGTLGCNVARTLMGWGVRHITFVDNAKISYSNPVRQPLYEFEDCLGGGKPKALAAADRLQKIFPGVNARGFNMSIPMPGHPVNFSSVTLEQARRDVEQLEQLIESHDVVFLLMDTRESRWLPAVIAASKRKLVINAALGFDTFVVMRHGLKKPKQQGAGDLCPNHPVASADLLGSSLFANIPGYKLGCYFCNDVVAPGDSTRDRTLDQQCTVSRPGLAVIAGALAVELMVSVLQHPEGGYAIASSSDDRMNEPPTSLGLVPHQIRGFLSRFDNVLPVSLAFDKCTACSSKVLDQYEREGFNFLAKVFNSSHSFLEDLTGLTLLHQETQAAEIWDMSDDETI
# [9] = target: Geranylgeranyl transferase type I (Homo sapiens, UniProt P49354+P53609); assay: Inhibition of GGTase1 isolated from Kirsten virus-transformed human osteosarcoma cells using biotin-YRASNRSCAIL peptide as substrate after 120 mins in presence of [ 1-[ 3 H](n)]geranylgeranylpyrophosphate by scintillation proximity assay
# Chain of Histone acetyltransferase p300 (Q09472 whole entry): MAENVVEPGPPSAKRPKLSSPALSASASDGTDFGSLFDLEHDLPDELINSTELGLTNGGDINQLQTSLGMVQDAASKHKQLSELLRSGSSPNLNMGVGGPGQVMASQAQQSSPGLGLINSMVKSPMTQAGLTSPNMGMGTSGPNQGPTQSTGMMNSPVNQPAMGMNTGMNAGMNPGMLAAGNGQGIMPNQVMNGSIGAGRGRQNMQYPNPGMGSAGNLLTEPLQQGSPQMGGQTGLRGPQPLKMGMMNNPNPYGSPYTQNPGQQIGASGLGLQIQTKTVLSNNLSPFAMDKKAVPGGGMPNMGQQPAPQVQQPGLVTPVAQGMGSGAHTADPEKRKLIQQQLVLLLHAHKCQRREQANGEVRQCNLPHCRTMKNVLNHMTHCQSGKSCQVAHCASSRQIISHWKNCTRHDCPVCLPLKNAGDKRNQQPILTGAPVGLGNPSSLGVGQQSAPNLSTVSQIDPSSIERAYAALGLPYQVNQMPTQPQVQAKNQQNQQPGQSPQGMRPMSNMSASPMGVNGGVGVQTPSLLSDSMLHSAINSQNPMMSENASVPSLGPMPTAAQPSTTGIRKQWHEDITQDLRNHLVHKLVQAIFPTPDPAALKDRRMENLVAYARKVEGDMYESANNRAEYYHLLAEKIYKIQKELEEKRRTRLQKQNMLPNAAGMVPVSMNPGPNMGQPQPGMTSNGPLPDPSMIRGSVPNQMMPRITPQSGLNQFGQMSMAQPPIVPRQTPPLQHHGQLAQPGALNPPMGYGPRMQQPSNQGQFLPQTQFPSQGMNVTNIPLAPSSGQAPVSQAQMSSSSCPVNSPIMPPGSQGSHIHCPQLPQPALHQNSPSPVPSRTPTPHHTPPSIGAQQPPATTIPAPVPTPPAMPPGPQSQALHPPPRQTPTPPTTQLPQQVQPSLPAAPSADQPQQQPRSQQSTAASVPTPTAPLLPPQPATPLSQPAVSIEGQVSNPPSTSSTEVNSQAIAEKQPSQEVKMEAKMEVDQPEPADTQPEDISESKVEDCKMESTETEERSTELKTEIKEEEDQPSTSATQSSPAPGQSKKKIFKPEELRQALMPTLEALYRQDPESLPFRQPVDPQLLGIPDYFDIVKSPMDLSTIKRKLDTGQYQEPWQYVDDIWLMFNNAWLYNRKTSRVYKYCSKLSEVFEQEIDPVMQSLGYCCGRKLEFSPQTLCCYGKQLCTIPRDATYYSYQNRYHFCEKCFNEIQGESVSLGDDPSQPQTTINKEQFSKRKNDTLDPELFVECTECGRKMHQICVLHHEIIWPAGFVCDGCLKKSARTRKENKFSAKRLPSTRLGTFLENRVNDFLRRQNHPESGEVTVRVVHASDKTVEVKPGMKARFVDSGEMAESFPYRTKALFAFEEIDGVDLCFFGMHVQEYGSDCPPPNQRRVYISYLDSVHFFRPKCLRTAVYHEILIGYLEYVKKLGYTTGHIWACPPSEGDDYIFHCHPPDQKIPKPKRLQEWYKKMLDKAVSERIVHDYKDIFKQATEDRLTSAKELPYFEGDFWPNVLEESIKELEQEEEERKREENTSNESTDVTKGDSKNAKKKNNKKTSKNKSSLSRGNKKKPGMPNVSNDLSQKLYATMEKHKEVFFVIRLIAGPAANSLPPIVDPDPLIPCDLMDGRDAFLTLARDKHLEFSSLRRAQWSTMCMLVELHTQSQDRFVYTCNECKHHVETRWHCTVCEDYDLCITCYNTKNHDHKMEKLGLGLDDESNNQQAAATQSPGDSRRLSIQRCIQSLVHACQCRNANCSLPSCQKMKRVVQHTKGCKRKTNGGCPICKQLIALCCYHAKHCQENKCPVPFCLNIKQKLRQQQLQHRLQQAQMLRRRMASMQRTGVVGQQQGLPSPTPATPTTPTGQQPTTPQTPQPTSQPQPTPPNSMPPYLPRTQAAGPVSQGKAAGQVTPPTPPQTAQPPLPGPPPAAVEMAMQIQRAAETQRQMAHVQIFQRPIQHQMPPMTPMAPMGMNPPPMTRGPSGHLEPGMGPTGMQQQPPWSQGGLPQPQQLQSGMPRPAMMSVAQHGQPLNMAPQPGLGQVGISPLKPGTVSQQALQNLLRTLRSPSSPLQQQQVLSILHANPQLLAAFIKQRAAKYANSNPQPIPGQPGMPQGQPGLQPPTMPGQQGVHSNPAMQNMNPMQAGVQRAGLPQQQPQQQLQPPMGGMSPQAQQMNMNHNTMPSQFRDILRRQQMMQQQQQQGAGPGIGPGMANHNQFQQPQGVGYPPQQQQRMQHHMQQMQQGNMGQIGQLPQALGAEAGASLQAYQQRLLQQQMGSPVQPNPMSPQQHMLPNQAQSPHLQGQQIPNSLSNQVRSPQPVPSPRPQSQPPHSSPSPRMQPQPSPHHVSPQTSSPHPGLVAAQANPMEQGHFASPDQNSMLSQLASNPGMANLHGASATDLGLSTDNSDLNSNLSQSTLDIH
# Chain of Serine/threonine-protein kinase B-raf (P15056 whole entry): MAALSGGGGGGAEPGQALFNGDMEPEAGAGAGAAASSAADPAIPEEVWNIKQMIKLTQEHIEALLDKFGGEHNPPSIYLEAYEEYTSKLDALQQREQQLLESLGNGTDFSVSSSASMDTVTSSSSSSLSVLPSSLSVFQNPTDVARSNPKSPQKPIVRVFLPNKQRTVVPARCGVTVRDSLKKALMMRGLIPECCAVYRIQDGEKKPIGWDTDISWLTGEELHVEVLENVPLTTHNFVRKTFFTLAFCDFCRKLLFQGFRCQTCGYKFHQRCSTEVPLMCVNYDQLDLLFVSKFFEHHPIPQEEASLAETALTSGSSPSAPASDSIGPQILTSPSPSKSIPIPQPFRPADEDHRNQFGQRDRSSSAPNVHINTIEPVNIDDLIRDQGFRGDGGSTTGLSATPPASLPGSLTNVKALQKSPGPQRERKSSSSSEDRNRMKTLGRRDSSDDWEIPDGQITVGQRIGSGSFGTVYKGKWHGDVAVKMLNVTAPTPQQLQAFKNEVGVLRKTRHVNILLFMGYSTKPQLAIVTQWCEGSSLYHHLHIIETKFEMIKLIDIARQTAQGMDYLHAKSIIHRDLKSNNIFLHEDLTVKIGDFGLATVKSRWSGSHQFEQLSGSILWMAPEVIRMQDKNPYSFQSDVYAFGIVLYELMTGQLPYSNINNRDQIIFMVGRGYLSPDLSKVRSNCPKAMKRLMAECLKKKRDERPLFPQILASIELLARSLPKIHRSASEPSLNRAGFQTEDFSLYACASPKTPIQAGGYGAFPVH
# Chain of SUMO-activating enzyme (Q9UBE0 whole entry): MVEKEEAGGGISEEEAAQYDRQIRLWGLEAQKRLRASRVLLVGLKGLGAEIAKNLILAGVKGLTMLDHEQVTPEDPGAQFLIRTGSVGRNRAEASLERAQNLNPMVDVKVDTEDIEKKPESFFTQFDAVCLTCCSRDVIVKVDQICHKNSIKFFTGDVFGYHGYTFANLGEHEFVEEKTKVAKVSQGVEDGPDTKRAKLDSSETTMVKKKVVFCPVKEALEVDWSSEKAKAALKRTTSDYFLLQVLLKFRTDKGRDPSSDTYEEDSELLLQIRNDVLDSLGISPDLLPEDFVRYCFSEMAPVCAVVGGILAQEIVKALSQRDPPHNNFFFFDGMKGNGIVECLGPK
# Chain of SUMO-activating enzyme (Q9UBT2 whole entry): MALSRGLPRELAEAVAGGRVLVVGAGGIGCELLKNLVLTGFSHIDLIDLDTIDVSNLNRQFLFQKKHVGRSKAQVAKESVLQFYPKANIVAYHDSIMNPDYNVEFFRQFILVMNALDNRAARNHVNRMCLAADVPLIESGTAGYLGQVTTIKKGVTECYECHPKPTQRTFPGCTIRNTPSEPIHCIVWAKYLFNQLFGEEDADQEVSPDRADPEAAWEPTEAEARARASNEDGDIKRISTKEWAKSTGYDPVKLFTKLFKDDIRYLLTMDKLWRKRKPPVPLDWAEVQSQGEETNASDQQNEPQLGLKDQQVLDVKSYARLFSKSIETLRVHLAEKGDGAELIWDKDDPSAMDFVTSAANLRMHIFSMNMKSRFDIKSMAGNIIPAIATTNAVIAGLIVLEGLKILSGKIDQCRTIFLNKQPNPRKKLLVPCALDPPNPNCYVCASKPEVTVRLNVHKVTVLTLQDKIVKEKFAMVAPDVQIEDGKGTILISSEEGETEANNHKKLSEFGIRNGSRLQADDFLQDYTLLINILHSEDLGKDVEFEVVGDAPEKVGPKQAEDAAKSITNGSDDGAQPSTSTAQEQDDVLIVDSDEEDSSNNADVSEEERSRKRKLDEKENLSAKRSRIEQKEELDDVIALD
smiles,measurement,setting,value
CCNC1=N[C@@H]2[C@@H](O)[C@H](O)[C@@H](CO)O[C@@H]2S1,EC50,Protein O-GlcNAcase,30 nM
COC(=O)[C@H](CCSC)NC(=O)c1ccc(NC[C@@H](N)CS)cc1-c1ccccc1,IC50,[1],0.5 nM
COCC(=O)N[C@@H](Cc1ccc(-c2cc(Cl)cc(Cl)c2)cc1)[C@H](O)[C@@H](O)C(=O)O,IC50,[2],1700 nM
CSCC[C@@H](NC(=O)c1ccc(CNCc2c[nH]cn2)cc1-c1ccccc1C)C(=O)O,IC50,[1],1.4 nM
C=C(C)[C@H](CC=C(C)C)C[C@]12C[C@H](CC=C(C)C)C(C)(C)[C@](CC=C(C)C)(C(=O)C(C(=O)c3ccc(O)c(O)c3)=C1O)C2=O,IC50,[3],7000 nM
Nc1nnc(Sc2ncc([N+](=O)[O-])s2)s1,IC50,[4],700 nM
CN1C(=O)[C@]23CC4=CC=C[C@H](O)[C@H]4N2C(=O)[C@@]1(CO)SS3 [GLIOTOXIN],IC50,Sharpin/RBCK1/RNF31,510 nM
O=C1CCc2c(Oc3ccc4c(c3)[C@@H]3[C@H](O4)[C@H]3c3nc4ccc(C(F)(F)F)cc4[nH]3)ccnc2N1 [LIFIRAFENIB],IC50,[5],23 nM
NS(=O)(=O)OC[C@@H]1C[C@@H](n2ccc3c(N[C@H]4CCc5ccccc54)ncnc32)C[C@@H]1O [PEVONEDISTAT],IC50,[6],> 1000 nM
same,IC50,[7],> 1000 nM
same,IC50,SUMO-activating enzyme,> 1000 nM
same,IC50,[8],> 1000 nM
Cn1cncc1[C@@](N)(c1ccc(Cl)cc1)c1ccc2c(c1)c(-c1cccc(Cl)c1)cc(=O)n2C [TIPIFARNIB],IC50,[9],> 1000 nM
